From patent publication US8183364B2, “Substituted porphyrins” (Duke University, priority 2004, dated 2012)

Legend:
[1] = Electrochemistry: cyclic voltammetry of the Mn(III)/Mn(II) redox couple; format: physicochemical
Description: Electrochemistry. Measurements were performed on a CH Instruments Model 600 Voltammetric Analyzer (Spasojevic and Batinic-Haberle, Inorg. Chim. Acta. 317:230-242 (2001), Batinic-Haberle et al, J. Biol. Chem. 273:24521-24528 (1998), Batinic-Haberle et al, Inorg. Chem. 38:4011-4022 (1999)). A three-electrode system in a small volume cell (0.5 mL to 3 mL), with a 3 mm-diameter glassy carbon button working electrode (Bioanalytical Systems), plus the Ag/AgCl reference and Pt auxiliary electrodes was used. Argon-purged solutions contained 0.05 M phosphate buffer, pH 7.8, 0.1 M NaCl, and 0.5 mM metalloporphyrin. The scan rates were 0.01-0.5 V/s, typically 0.1 V/s. The potentials were standardized against the potassium ferrocyanide/ferricyanide (Kolthof and Tomsicek, J. Phys. Chem. 39:945 (1935)) and/or against MnTE-2-PyP^5+ (Spasojevic and Batinic-Haberle, Inorg. Chim. Acta. 317:230-242 (2001), Batinic-Haberle et al, J. Biol. Chem. 273:24521-24528 (1998), Batinic-Haberle et al, Inorg. Chem. 38:4011-4022 (1999)).
Electrochemistry. All cyclic voltammograms, ascribed to the Mn(III)/Mn(II) redox couple, are reversible. The E1/2 of di-ortho ethylimidazolylporphyrin, MnTDE-2-ImP^5+ is 118 mV more positive than of ortho ethylpyridylporphyrin, MnTE-2-PyP^5+ (+228 mV vs NHE), as a consequence of charge delocalization. A similar difference of 114 mV was seen between their methoxyethyl analogues. Mn porphyrins bearing N-pyridyl substituents of the same length, MnTnBu-PyP^5+ and MnTMOE-2-PyP^5+, have nearly identical E1/2 of +254 and +251 mV vs NHE, which is 26 and 23 mV higher than that of MnTE-PyP^5+.

[2] = Catalysis of O2.^− dismutation by pulse radiolysis; format: biochemical; conditions: pulse radiolysis, pH 7.8, (22 ± 1) °C; kcat ±30%
Description: Catalysis of O2.^− dismutation. The catalytic rate constants for the O2.^− dismutation were determined by pulse radiolysis in 0.05 M phosphate buffer (pH 7.8) at (22±1)° C. as previously described (Batinic-Haberle et al, Inorg. Chem. 40:726 (2001)). In the present study 10 mM formate was used as a scavenger for H. atoms and .OH radicals, which leads first to production of CO2.^− radicals and then to O2.^− radicals. This system is known to lead to conversion of all primary radicals of water radiolysis into O2.^−.
Catalysis of O2.^− dismutation. Pulse radiolysis was used to assess the SOD-like activities of the Mn porphyrins studied. The initial concentration of O2.^− produced by the pulse was about 27 μM, and the concentration of the Mn porphyrin was between 0.5 and 5 μM. The dismutation of O2.^− was followed at 280 nm. The catalytic rate constant was determined from the linear dependence of kobs upon the concentration of the catalyst (Batinic-Haberle et al, Inorg. Chem. 40:726 (2001)). All the new compounds have high O2.^− dismuting ability. The magnitude of the catalysis is due to the interplay of the electron-withdrawing effects of quaternized ortho pyridyl or di-ortho imidazolyl groups, favorable electrostatics, and the solvation of the metal site.

[3] = Thin-layer chromatography on silica gel (retention factor Rf, lipophilicity); format: physicochemical; conditions: silica gel TLC, KNO3-saturated H2O/H2O/acetonitrile = 1/1/8
Description: Uv/vis spectra of porphyrin ligands and their Mn complexes were taken on a Shimadzu UV-2501-PC spectrophotometer at 25° C. Thin-layer chromatography of ligands and Mn complexes was done using silica gel plates with KNO3satH2O/H2O/acetonitrile=1/1/8.
Thin-layer chromatography. All new methoxyporphyrins are more lipophilic than MnTE-2-PyP^5+ and MnTDE-2-ImP^5+.

[4] = Oxidative degradation in the presence of ascorbic acid under aerobic conditions; format: physicochemical; conditions: pH 7.8 (0.05 M tris buffer)
Description: Under these conditions porphyrins underwent oxidative degradation. As previously observed (Batinic-Haberle et al, J. Chem. Soc., Dalton Trans., pgs. 2689-2696 (2002)), those porphyrins that are of more positive E1/2 are stabilized in +2 oxidation state and are less prone to oxidative damage. Accordingly, 27% and 24% of MnTE-2-PyP^5+ and MnTMOE-2-PyP^5+ undergo degradation within 2 hours, but only 2% of MnTM,MOE-2-ImP^5+ and MnTDMOE-2-ImP^5+ and 3% of MnTDE-2-ImP^5+.

[5] = tested on: SOD-deficient JI132 E. coli; assay: Aerobic growth of SOD-deficient E. coli; format: cell-based
Description: Aerobic growth of E. coli. Bacterial strains of E. coli used were wild type AB1157 (F-thr-1 leu-1 proA2 his-4 argE3 thr-1 lacY1 galK2 rpsL supE44 ara-14 xyl-15 mtl-1 tsx-33) and SOD-deficient JI132 (same as AB1157 plus (sodA::mudPR13)25 (sodB-kan)1-Δ2. Culture media were prepared as follows. M9 medium: 6 g/L Na2HPO4, 3 g/L KH2PO4, 0.5 g/L NaCl, 1 g/L NH4Cl, 2 mM MgSO4, 0.1 mM CaCl2, adjusted to pH 7.4 with NaOH, and supplemented with 0.2% glucose, 3 mg/L each of D-panthotenic acid and thiamine. M9CA medium contained M9 medium plus 0.2% casamino acids. 5-amino acid (5AA) minimal medium contained M9 medium plus 0.5 mM each of threonine, leucine, histidine, proline and arginine (Faulkner et al, J. Biocl. Chem. 269:23471 (1994)).
AB 1157 and 31132 were precultured overnight aerobically in M9CA medium at 37° C. and were then diluted to 3×10^7 cells/mL into 5 mL M9CA medium. JI132 was precultured in the presence of 20 μg/mL chloramphenicol and 500 μg/mL kanamycin. When the cells are transferred from M9CA medium to 5AA minimal medium cultures were first centrifuged and washed twice with the 5AA medium before final dilution in it. The centrifugation was conducted at room temperature to avoid temperature shocks. Cultures without and with Mn porphyrins (0.1 to 30 μM) were grown aerobically in 5 mL volume in test tubes in a thermostated orbital shaker (45° angle, 200 rpm) at 37° C.). Rates of growth were followed turbidimetrically at 700 nm to minimize interference from the absorbance of test compounds.

[6] = stroke model; cited from earlier work
[7] = given intravenously; cited from earlier work

For `CCn1cc[n+](CC)c1-c1c2nc(c(-c3n(CC)cc[n+]3CC)c3ccc([n-]3)c(-c3n(CC)cc[n+]3CC)c3nc(c(-c4n(CC)cc[n+]4CC)c4ccc1[n-]4)C=C3)C=C2.[Mn+3]` [MnTDE-2-ImP^5+, Mn(III) 5,10,15,20-tetrakis[N,N′-diethylimidazolium-2-yl]porphyrin], the “E1/2 difference of imidazolyl porphyrin vs analogous pyridyl porphyrin” value [1] was “more than 100 mV”, the “Metal-centered redox potential E1/2” value ([1]; Mn(III)/Mn(II), 0.1 M NaCl, 0.05 M phosphate buffer, pH 7.8, ±3 mV) was “+346 mV vs NHE” and the “E1/2 more positive / higher than that of MnTE-2-PyP^5+” value ([1]; difference vs MnTE-2-PyP^5+ (+228 mV vs NHE)) was 118 mV. The “log kcat for O2^− dismutation” value [2] was 7.83, the “Rf (compound path/solvent path), metal-free porphyrin (in parenthesis)” value ([3]; metal-free ligand of the named Mn porphyrin) was 0.23 and the “Rf (compound path/solvent path), Mn complex” value [3] was 0.17. For the same compound, the “degradation within 2 hours” value [4] was 3%, the “protection of SOD-deficient E. coli” value ([5]; M9CA medium, 1 μM) was “low protection” and the “protection of SOD-deficient E. coli” value ([5]; M9CA medium, 3 μM) was “ineffective”. The “protection of SOD-deficient E. coli” value ([5]; M9CA medium, 30 μM) was “either much higher or near full protection”, the “facilitation of aerobic growth of SOD-deficient E. coli, dependence on concentration” value ([5]; M9CA medium, 1-30 μM) was “concentration-dependent manner” and the “protection of E. coli from oxidative stress” value ([5]; ≦3 μM levels (FIG. 10: 5AA minimal medium)) was “the least effective”. For the same compound, the “neurotoxicity lower than the pyridyl compound (MnTE-2-PyP^5+)” value [6] was 16 fold, the “passing the spinal cord blood barrier compared to MnTE-2-PyP^5+” value [7] was “less effective” and the “protectiveness in spinal cord injury compared to MnTE-2-PyP^5+” value [7] was “lacks protectiveness”.
